{"source": "the PolyMetriX glass transition set", "data": [{"smiles": "*/C(=N\\c1ccccc1)c1ccc(-c2ccc(*)cc2)cc1", "note": "(repeat unit)", "values": [{"measurement": "glass transition temperature", "result": 225.00, "unit": "°C"}]}, {"smiles": "*C(=O)c1ccc(C(=O)N(*)c2ccccc2)cc1", "note": "(repeat unit)", "values": [{"measurement": "glass transition temperature", "result": 179.00, "unit": "°C"}]}, {"smiles": "*CC(*)C(=O)c1ccc(Br)c(OC)c1", "note": "(repeat unit)", "values": [{"measurement": "glass transition temperature", "result": 44.00, "unit": "°C"}]}, {"smiles": "*CC(*)C(=O)c1ccc(CCC)cc1", "note": "(repeat unit)", "values": [{"measurement": "glass transition temperature", "result": 44.00, "unit": "°C"}]}, {"smiles": "*CC(*)C(C)=O", "note": "(repeat unit)", "values": [{"measurement": "glass transition temperature", "result": 115.00, "unit": "°C"}]}, {"smiles": "*CC(*)C1CCCCC1C", "note": "(repeat unit)", "values": [{"measurement": "glass transition temperature", "result": 186.00, "unit": "°C"}]}, {"smiles": "*CC(*)CC1CCCC1", "note": "(repeat unit)", "values": [{"measurement": "glass transition temperature", "result": 60.00, "unit": "°C"}]}, {"smiles": "*CC(*)CCCCCCCCCCCC", "note": "(repeat unit)", "values": [{"measurement": "glass transition temperature", "result": 10.00, "unit": "°C"}]}, {"smiles": "*CC(*)CCCCCCCCCI", "note": "(repeat unit)", "values": [{"measurement": "glass transition temperature", "result": -6.00, "unit": "°C"}]}, {"smiles": "*CC(*)CCI", "note": "(repeat unit)", "values": [{"measurement": "glass transition temperature", "result": 70.00, "unit": "°C"}]}, {"smiles": "*CC(*)CN", "note": "(repeat unit)", "values": [{"measurement": "glass transition temperature", "result": 190.00, "unit": "°C"}]}, {"smiles": "*CC(*)CNc1ccc([N+](=O)[O-])cc1[N+](=O)[O-]", "note": "(repeat unit)", "values": [{"measurement": "glass transition temperature", "result": 160.00, "unit": "°C"}]}, {"smiles": "*CC(*)NC=O", "note": "(repeat unit)", "values": [{"measurement": "glass transition temperature", "result": 150.00, "unit": "°C"}]}, {"smiles": "*CC(*)OC(=O)C(C)(C(C)C)C(C)C", "note": "(repeat unit)", "values": [{"measurement": "glass transition temperature", "result": 120.00, "unit": "°C"}]}, {"smiles": "*CC(*)OC(=O)C(Cl)(Cl)Cl", "note": "(repeat unit)", "values": [{"measurement": "glass transition temperature", "result": 59.00, "unit": "°C"}]}, {"smiles": "*CC(*)OC(=O)CC1CCCC1", "note": "(repeat unit)", "values": [{"measurement": "glass transition temperature", "result": -3.00, "unit": "°C"}]}, {"smiles": "*CC(*)OC(=O)CCCC(=O)c1ccccc1", "note": "(repeat unit)", "values": [{"measurement": "glass transition temperature", "result": 45.00, "unit": "°C"}]}, {"smiles": "*CC(*)OC(=O)CCl", "note": "(repeat unit)", "values": [{"measurement": "glass transition temperature", "result": 20.5, "unit": "°C"}]}, {"smiles": "*CC(*)OC(=O)OC([2H])([2H])[2H]", "note": "(repeat unit)", "values": [{"measurement": "glass transition temperature", "result": 55.00, "unit": "°C"}]}, {"smiles": "*CC(*)OC(=O)OCCC(F)(F)C(F)(F)C(F)(F)C(F)(F)C(F)(F)C(F)(F)F", "note": "(repeat unit)", "values": [{"measurement": "glass transition temperature", "result": 37.00, "unit": "°C"}]}, {"smiles": "*CC(*)OC(=O)c1ccc(Br)cc1", "note": "(repeat unit)", "values": [{"measurement": "glass transition temperature", "result": 85.50, "unit": "°C"}]}, {"smiles": "*CC(*)OC(=O)c1ccc(C(C)(C)C)cc1", "note": "(repeat unit)", "values": [{"measurement": "glass transition temperature", "result": 121.00, "unit": "°C"}]}, {"smiles": "*CC(*)OC(=O)c1ccc(C)cc1", "note": "(repeat unit)", "values": [{"measurement": "glass transition temperature", "result": 73.50, "unit": "°C"}]}, {"smiles": "*CC(*)OC(=O)c1ccc(CC)cc1", "note": "(repeat unit)", "values": [{"measurement": "glass transition temperature", "result": 57.00, "unit": "°C"}]}, {"smiles": "*CC(*)OC(=O)c1ccc(Cl)cc1", "note": "(repeat unit)", "values": [{"measurement": "glass transition temperature", "result": 70.2, "unit": "°C"}]}, {"smiles": "*CC(*)OC(=O)c1ccc(OC(=O)CCC)cc1", "note": "(repeat unit)", "values": [{"measurement": "glass transition temperature", "result": 61.00, "unit": "°C"}]}, {"smiles": "*CC(*)OC(=O)c1ccc(OC(C)=O)cc1", "note": "(repeat unit)", "values": [{"measurement": "glass transition temperature", "result": 76.00, "unit": "°C"}]}, {"smiles": "*CC(*)OC(=O)c1cccc(OC)c1", "note": "(repeat unit)", "values": [{"measurement": "glass transition temperature", "result": 44.00, "unit": "°C"}]}, {"smiles": "*CC(*)OC(=O)c1ccccc1C", "note": "(repeat unit)", "values": [{"measurement": "glass transition temperature", "result": 42.50, "unit": "°C"}]}, {"smiles": "*CC(*)OC(=O)c1ccccc1OC", "note": "(repeat unit)", "values": [{"measurement": "glass transition temperature", "result": 65.00, "unit": "°C"}]}, {"smiles": "*CC(*)OC(=O)c1ccccc1OC(C)=O", "note": "(repeat unit)", "values": [{"measurement": "glass transition temperature", "result": 59.50, "unit": "°C"}]}, {"smiles": "*CC(*)OC(=O)c1ccncc1", "note": "(repeat unit)", "values": [{"measurement": "glass transition temperature", "result": 98.50, "unit": "°C"}]}, {"smiles": "*CC(*)OC(=O)c1nn(C(C)=O)c2ccccc12", "note": "(repeat unit)", "values": [{"measurement": "glass transition temperature", "result": 150.00, "unit": "°C"}]}, {"smiles": "*CC(*)OC(F)(C(F)(F)F)C(F)(F)F", "note": "(repeat unit)", "values": [{"measurement": "glass transition temperature", "result": 65.00, "unit": "°C"}]}, {"smiles": "*CC(*)OCC(C)(C)CC", "note": "(repeat unit)", "values": [{"measurement": "glass transition temperature", "result": 9.00, "unit": "°C"}]}, {"smiles": "*CC(*)OCC(CC)CCCC", "note": "(repeat unit)", "values": [{"measurement": "glass transition temperature", "result": -66.00, "unit": "°C"}]}, {"smiles": "*CC(*)OCCCCCCCCCCCOc1ccc(C(=O)Oc2ccc(C#N)cc2)cc1", "note": "(repeat unit)", "values": [{"measurement": "glass transition temperature", "result": 37.00, "unit": "°C"}]}, {"smiles": "*CC(*)OCCCCCCCCCCCOc1ccc(C(=O)Oc2ccc(OCC)cc2)cc1", "note": "(repeat unit)", "values": [{"measurement": "glass transition temperature", "result": 37.00, "unit": "°C"}]}, {"smiles": "*CC(*)OCCOc1ccc(/C=C(\\C#N)C(=O)OC)cc1", "note": "(repeat unit)", "values": [{"measurement": "glass transition temperature", "result": 47.00, "unit": "°C"}]}, {"smiles": "*CC(*)O[N+](=O)[O-]", "note": "(repeat unit)", "values": [{"measurement": "glass transition temperature", "result": 37.50, "unit": "°C"}]}, {"smiles": "*CC(*)P(=O)(c1ccccc1)c1ccccc1", "note": "(repeat unit)", "values": [{"measurement": "glass transition temperature", "result": 127.50, "unit": "°C"}]}, {"smiles": "*CC(*)S(=O)(=O)c1ccccc1", "note": "(repeat unit)", "values": [{"measurement": "glass transition temperature", "result": 128.00, "unit": "°C"}]}, {"smiles": "*CC(*)[Si](C)(C)C", "note": "(repeat unit)", "values": [{"measurement": "glass transition temperature", "result": 137.00, "unit": "°C"}]}, {"smiles": "*CC(*)c1c(F)c(F)c(C(F)(F)F)c(F)c1F", "note": "(repeat unit)", "values": [{"measurement": "glass transition temperature", "result": 112.00, "unit": "°C"}]}, {"smiles": "*CC(*)c1c(F)c(F)c(OCC(F)(F)C(F)(F)C(F)(F)C(F)(F)C(F)(F)C(F)(F)C(F)(F)F)c(F)c1F", "note": "(repeat unit)", "values": [{"measurement": "glass transition temperature", "result": 21.00, "unit": "°C"}]}, {"smiles": "*CC(*)c1c(F)c(F)c(OCC(F)(F)C(F)(F)F)c(F)c1F", "note": "(repeat unit)", "values": [{"measurement": "glass transition temperature", "result": 61.00, "unit": "°C"}]}, {"smiles": "*CC(*)c1c([2H])c([2H])c([2H])c([2H])c1[2H]", "note": "(repeat unit)", "values": [{"measurement": "glass transition temperature", "result": 100.00, "unit": "°C"}]}, {"smiles": "*CC(*)c1cc(-c2ccc(C(=O)OC3CC(C)CCC3C(C)C)cc2)ccc1-c1ccc(C(=O)OC2CC(C)CCC2C(C)C)cc1", "note": "(repeat unit)", "values": [{"measurement": "glass transition temperature", "result": 217.50, "unit": "°C"}]}, {"smiles": "*CC(*)c1cc(Br)ccc1OCCC", "note": "(repeat unit)", "values": [{"measurement": "glass transition temperature", "result": 54.00, "unit": "°C"}]}, {"smiles": "*CC(*)c1cc(Br)ccc1OCCC(C)C", "note": "(repeat unit)", "values": [{"measurement": "glass transition temperature", "result": 37.00, "unit": "°C"}]}, {"smiles": "*CC(*)c1cc(C(=O)OCC)ccc1-c1ccc(OCCCCCCCC)cc1", "note": "(repeat unit)", "values": [{"measurement": "glass transition temperature", "result": 95.00, "unit": "°C"}]}, {"smiles": "*CC(*)c1cc(C)c(C)cc1C", "note": "(repeat unit)", "values": [{"measurement": "glass transition temperature", "result": 104.00, "unit": "°C"}]}, {"smiles": "*CC(*)c1cc(OC)c(O)c(OC)c1", "note": "(repeat unit)", "values": [{"measurement": "glass transition temperature", "result": 147.00, "unit": "°C"}]}, {"smiles": "*CC(*)c1ccc(-c2ccc3c(c2)C(CCCCCC)(CCCCCC)c2cc(-c4ccc5c(c4)C(CCCCCC)(CCCCCC)c4ccccc4-5)ccc2-3)cc1", "note": "(repeat unit)", "values": [{"measurement": "glass transition temperature", "result": 78.60, "unit": "°C"}]}, {"smiles": "*CC(*)c1ccc(-c2ccc3c(c2)C(CCCCCC)(CCCCCC)c2ccccc2-3)cc1", "note": "(repeat unit)", "values": [{"measurement": "glass transition temperature", "result": 81.2, "unit": "°C"}]}, {"smiles": "*CC(*)c1ccc(B(O[Si](C)(C)C)O[Si](C)(C)C)cc1", "note": "(repeat unit)", "values": [{"measurement": "glass transition temperature", "result": 84.00, "unit": "°C"}]}, {"smiles": "*CC(*)c1ccc(B(Oc2ccc(B3OC(C)(C)C(C)(C)O3)c3cccnc23)c2ccc(C(C)(C)C)cc2)cc1", "note": "(repeat unit)", "values": [{"measurement": "glass transition temperature", "result": 275.00, "unit": "°C"}]}, {"smiles": "*CC(*)c1ccc(C#N)cc1", "note": "(repeat unit)", "values": [{"measurement": "glass transition temperature", "result": 180.00, "unit": "°C"}]}, {"smiles": "*CC(*)c1ccc(C(=O)CCC)cc1", "note": "(repeat unit)", "values": [{"measurement": "glass transition temperature", "result": 74.00, "unit": "°C"}]}, {"smiles": "*CC(*)c1ccc(C(=O)CCCCC)cc1", "note": "(repeat unit)", "values": [{"measurement": "glass transition temperature", "result": 66.00, "unit": "°C"}]}, {"smiles": "*CC(*)c1ccc(C(=O)CCN2CCOCC2)cc1", "note": "(repeat unit)", "values": [{"measurement": "glass transition temperature", "result": 41.00, "unit": "°C"}]}, {"smiles": "*CC(*)c1ccc(C(=O)N(CC)CC)cc1", "note": "(repeat unit)", "values": [{"measurement": "glass transition temperature", "result": 102.00, "unit": "°C"}]}, {"smiles": "*CC(*)c1ccc(C(=O)N2CCOCC2)cc1", "note": "(repeat unit)", "values": [{"measurement": "glass transition temperature", "result": 127.00, "unit": "°C"}]}, {"smiles": "*CCCCCCN(CC(F)(F)C(F)(F)F)C(=O)C(F)(F)C(F)(F)C(F)(F)C(=O)N(*)CC(F)(F)C(F)(F)F", "note": "(repeat unit)", "values": [{"measurement": "glass transition temperature", "result": 174.00, "unit": "°C"}]}, {"smiles": "*CCCCCCOc1ccc(C(=O)N(C(=O)c2ccc(O*)cc2)c2cccc3ccccc23)cc1", "note": "(repeat unit)", "values": [{"measurement": "glass transition temperature", "result": 56.00, "unit": "°C"}]}, {"smiles": "*CCCCCCOc1ccc(C(=O)N(C(=O)c2ccc(O*)cc2)c2ccccc2)cc1", "note": "(repeat unit)", "values": [{"measurement": "glass transition temperature", "result": 100.00, "unit": "°C"}]}, {"smiles": "*COc1ccc(C(=C(Cl)Cl)c2ccc(O*)cc2)cc1", "note": "(repeat unit)", "values": [{"measurement": "glass transition temperature", "result": 108.00, "unit": "°C"}]}]}
